Results taken from US20240197737A1, “APPLICATION OF COMPOUND IN PREPARATION OF INHIBITORY DRUG TARGETING ERBB2 MUTANT” (SHANGHAI PHARMACEUTICALS HOLDING CO., LTD., priority 2021, published 2024).
pIC50: −log10 of the molar value.

Columns and labels:
ErbB2 (D769H) = biological target: T1, ErbB2 (D769H) (Homo sapiens, UniProt P04626, D769H); test: ErbB2 mutant inhibition assay (33P-ATP radiometric kinase assay, Reaction Biology); assay type: biochemical; conditions: ATP 10 μM, 20 min preincubation, 2 h reaction; read-out: Compound IC50 ErbB2 (D769H)
T1 construct: purchased Reaction Biology Corporation
T1 sequence (P04626 23-1255 D769H): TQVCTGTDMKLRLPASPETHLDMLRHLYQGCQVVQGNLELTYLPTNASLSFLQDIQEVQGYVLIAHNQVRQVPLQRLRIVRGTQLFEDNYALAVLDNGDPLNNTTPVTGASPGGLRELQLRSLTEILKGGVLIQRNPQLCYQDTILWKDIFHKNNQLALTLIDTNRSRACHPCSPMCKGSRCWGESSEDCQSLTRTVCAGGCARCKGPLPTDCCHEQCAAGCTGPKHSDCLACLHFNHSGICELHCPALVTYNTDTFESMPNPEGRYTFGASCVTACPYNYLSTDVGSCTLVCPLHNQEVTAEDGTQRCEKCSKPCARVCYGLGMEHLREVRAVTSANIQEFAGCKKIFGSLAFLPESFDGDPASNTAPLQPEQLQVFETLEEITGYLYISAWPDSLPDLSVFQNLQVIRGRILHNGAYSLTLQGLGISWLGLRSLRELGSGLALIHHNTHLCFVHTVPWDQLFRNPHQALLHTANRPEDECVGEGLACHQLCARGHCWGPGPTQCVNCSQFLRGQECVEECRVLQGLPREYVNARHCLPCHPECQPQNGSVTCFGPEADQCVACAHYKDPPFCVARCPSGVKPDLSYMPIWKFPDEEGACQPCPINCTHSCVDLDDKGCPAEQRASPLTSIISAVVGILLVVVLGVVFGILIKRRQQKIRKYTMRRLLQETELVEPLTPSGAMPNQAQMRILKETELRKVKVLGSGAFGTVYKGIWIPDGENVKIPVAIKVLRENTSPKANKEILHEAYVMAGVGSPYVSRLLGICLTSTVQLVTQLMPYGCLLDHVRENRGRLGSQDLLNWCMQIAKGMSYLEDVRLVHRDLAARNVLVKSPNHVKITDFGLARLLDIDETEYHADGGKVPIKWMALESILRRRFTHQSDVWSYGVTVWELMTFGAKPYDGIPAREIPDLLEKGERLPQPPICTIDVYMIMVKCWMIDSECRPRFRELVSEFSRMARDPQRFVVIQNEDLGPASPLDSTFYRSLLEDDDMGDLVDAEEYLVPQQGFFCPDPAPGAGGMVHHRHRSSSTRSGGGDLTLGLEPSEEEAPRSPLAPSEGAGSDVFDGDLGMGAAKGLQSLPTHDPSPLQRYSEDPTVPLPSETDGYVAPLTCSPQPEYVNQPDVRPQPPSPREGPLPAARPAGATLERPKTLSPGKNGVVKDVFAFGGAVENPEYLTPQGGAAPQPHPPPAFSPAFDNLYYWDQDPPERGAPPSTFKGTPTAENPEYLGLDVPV
Description: (§1) The reagents and materials used in the assay, as well as the testing procedure, were provided and carried out by Reaction Biology Corporation. The specific steps were as follows: • 1. […] Conditions for the enzyme reaction assay: The test compounds were incubated for 20 minutes, ATP concentration was set at 10 μM, and the total duration of the enzyme reaction was 2 hours. • 3. Experimental steps for the enzyme reaction
(§2) The enzyme reaction buffer was 20 mM HEPES at a pH of 7.5, 10 mM MgCl2, 2 mM MnCl2, 1 mM EGTA, 0.01% Brij35, 0.02 mg/mL BSA, 0.1 mM Na3VO4, 2 mM DTT, and 1% DMSO.
(§3) Kinase activity %=(Remaining kinase activity of test compound samples/Kinase activity of solvent control samples (DMSO))*100%
(§4) The IC50 of the compound was calculated by fitting the kinase activity % at different compound concentrations.

ErbB2 (V777L) = biological target: T2, ErbB2 (V777L) (Homo sapiens, UniProt P04626, V777L); test: as above; assay type: biochemical; conditions: ATP 10 μM, 20 min preincubation, 2 h reaction; read-out: Compound IC50 ErbB2 (V777L)
T2 construct: purchased Reaction Biology Corporation
T2 sequence (P04626 23-1255 V777L): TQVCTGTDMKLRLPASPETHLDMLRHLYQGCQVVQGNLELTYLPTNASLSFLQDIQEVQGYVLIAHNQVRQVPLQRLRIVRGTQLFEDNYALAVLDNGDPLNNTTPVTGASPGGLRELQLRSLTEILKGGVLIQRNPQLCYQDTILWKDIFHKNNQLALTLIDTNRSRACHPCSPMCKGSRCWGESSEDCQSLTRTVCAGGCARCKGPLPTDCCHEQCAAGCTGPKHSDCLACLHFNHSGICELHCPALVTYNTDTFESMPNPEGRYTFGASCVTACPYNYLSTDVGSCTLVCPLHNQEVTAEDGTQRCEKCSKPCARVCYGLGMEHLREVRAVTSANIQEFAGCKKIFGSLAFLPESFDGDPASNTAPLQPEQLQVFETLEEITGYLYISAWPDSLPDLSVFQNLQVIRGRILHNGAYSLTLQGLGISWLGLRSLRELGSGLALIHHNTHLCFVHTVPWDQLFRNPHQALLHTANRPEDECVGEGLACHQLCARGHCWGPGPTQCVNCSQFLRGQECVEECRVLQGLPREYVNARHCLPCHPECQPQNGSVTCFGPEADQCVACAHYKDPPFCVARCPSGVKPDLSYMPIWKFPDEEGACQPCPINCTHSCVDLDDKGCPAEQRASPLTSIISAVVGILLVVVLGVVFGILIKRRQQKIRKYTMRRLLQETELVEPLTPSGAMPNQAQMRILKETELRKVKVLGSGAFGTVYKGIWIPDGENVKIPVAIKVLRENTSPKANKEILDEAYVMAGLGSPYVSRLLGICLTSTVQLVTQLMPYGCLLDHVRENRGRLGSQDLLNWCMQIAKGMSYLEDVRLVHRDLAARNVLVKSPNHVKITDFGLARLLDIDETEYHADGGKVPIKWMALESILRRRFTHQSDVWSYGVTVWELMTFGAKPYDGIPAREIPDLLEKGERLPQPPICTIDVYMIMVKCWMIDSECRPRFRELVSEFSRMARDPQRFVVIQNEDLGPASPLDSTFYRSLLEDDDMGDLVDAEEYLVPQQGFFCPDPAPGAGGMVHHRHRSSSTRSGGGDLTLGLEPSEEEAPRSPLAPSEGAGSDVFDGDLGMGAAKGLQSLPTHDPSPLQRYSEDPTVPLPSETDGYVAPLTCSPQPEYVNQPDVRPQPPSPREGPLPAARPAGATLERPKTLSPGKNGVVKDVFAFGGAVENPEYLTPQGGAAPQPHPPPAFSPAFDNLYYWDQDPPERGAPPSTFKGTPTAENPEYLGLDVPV
Description: as §1, §2, §3, §4

ErbB2 (D769Y) = biological target: T3, ErbB2 (D769Y) (Homo sapiens, UniProt P04626, D769Y); test: as above; assay type: biochemical; conditions: ATP 10 μM, 20 min preincubation, 2 h reaction; read-out: Compound IC50 ErbB2 (D769Y)
T3 construct: purchased Reaction Biology Corporation
T3 sequence (P04626 23-1255 D769Y): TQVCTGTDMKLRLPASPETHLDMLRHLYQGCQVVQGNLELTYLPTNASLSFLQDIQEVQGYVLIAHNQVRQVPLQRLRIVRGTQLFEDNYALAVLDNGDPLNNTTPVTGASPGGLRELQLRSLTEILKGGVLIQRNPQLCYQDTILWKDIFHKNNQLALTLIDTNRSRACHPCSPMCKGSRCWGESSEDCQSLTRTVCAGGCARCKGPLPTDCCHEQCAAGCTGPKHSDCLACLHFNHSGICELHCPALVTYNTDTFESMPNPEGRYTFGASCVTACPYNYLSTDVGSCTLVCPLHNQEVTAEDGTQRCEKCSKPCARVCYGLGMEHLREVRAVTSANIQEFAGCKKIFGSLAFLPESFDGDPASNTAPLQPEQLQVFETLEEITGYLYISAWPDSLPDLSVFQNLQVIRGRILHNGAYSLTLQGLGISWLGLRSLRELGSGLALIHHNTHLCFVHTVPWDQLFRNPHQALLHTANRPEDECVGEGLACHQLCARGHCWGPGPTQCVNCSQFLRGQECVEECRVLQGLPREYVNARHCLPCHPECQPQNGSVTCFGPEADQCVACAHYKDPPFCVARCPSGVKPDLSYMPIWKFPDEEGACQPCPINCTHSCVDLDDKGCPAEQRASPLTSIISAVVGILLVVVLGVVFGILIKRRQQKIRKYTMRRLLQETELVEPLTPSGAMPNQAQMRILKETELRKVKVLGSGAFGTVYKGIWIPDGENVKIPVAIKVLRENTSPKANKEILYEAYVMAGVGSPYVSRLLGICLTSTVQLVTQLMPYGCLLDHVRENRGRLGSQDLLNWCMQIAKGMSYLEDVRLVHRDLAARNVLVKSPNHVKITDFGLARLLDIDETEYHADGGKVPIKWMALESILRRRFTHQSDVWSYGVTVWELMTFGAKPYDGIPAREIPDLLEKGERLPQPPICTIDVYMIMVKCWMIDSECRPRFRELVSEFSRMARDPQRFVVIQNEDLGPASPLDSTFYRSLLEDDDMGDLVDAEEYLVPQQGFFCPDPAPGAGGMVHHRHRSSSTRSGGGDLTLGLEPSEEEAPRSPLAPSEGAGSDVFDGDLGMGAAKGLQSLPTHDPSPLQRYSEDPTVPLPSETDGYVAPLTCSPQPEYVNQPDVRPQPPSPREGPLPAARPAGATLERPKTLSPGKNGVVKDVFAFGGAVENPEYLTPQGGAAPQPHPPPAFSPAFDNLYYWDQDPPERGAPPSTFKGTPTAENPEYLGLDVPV
Description: as §1, §2, §3, §4

ErbB2 (R896C) = biological target: T4, ErbB2 (R896C) (Homo sapiens, UniProt P04626, R896C); test: as above; assay type: biochemical; conditions: ATP 10 μM, 20 min preincubation, 2 h reaction; read-out: Compound IC50 ErbB2 (R896C)
T4 construct: purchased Reaction Biology Corporation
T4 sequence (P04626 23-1255 R896C): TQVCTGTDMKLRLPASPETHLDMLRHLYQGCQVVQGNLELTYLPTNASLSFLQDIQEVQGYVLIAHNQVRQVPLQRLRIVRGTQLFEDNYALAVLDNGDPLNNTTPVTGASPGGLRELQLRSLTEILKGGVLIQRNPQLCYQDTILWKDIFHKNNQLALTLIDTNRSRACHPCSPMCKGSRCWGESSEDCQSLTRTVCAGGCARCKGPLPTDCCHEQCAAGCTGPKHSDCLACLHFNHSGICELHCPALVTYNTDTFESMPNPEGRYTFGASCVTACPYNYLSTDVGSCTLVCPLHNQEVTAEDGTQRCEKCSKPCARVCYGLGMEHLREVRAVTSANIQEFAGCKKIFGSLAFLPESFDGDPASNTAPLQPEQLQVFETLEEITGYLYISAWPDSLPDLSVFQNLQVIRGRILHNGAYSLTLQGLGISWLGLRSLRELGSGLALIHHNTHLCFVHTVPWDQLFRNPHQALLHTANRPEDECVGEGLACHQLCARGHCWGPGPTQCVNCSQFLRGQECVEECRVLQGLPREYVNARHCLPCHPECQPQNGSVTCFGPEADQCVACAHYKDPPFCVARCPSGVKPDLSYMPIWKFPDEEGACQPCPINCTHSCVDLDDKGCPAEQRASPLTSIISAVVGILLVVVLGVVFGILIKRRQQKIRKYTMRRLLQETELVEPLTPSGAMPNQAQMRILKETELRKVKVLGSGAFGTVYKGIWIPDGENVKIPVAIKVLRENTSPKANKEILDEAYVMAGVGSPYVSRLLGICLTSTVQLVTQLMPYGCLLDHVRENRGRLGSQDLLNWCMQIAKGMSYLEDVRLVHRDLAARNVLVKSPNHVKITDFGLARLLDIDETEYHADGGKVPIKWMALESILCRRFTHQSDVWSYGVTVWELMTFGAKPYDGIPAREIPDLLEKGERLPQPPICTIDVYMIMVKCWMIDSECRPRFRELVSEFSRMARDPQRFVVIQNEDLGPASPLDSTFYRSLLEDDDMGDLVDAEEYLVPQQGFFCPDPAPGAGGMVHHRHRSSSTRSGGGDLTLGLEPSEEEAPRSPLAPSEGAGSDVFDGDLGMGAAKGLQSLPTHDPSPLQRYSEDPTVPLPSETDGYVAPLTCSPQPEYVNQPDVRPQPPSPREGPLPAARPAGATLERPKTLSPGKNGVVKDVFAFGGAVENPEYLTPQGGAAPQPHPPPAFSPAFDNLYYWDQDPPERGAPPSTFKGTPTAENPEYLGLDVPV
Description: as §1, §2, §3, §4

[1] = tested on: Ba/F3 ErbB2 A775_G776insYVMA; test: ErbB2 mutant cell inhibition test (CTG, 72 hours); assay type: cell-based; conditions: for pIC50: Mus musculus, BaF3, Ba/F3 ErbB2 A775_G776insYVMA, 72 hours, CTG
Description: Cells were cultured, harvested during their logarithmic growth phase, and counted using a platelet counter. Cell viability was verified to be above 90% by trypan blue exclusion assay. After in vitro culture, 2×10^6 cells were obtained. […] A 10× drug solution was prepared, with a maximum concentration of 10 μM for the assay, and serially diluted 3-fold to nine concentrations. 10 μL of the drug solution was added to each well of the 96-well plate inoculated with the cells, and three duplicate wells were set for each drug concentration.

[2] = tested on: Ba/F3 ErbB2 A775_G776insYVMA mouse xenograft; test: Efficacy testing in NPSG mouse xenograft model; assay type: in vivo; conditions: for TGI (%): administration for 13 days; for Efficacy (in words): continuous administration for 13 days
Excerpt: NPSG male mice (Shanghai Jihui Laboratory Animal Care Co., Ltd., Certificate: No. 20170012006783) were subcutaneously inoculated on the right shoulder with Ba/F3 ErbB2 A775_G776insYVMA cells (cultured in vitro, 9×10^7 cells obtained). When the average tumor volume reached 130 mm^3, the mice were randomly divided into six groups based on tumor volume and body weight, with 10 mice in each group, and administration was started immediately. After the initiation of administration, the mice's body weight and tumor volume were measured twice a week, with the administration continued until Day 13 of the experiment. On Day 14 of the experiment, post-administration sample collection was conducted for each group.
Note: Data are presented as mean±standard error; control group is the group without any compound administered.

[3] = tested on: NCI-H1781 ErbB2 exon20ins (G766 > VC); test: ErbB2 mutant cell inhibition test (CTG, 72 hours); assay type: cell-based, Human; conditions: for pIC50: Homo sapiens, NCI-H1781 ErbB2 exon20ins (G766 > VC), 72 hours, CTG
Description: Cells were cultured, harvested during their logarithmic growth phase, and counted using a platelet counter. Cell viability was verified to be above 90% by trypan blue exclusion assay. After in vitro culture, 2×10^6 cells were obtained. The cell suspension was aliquoted into a 96-well plate at 1×10^3 cells per well (90 μL/well), and incubated overnight under conditions of 37° C., 5% CO2, and 95% humidity. A 10× drug solution was prepared, with a maximum concentration of 10 μM for the assay, and serially diluted 3-fold to nine concentrations. 10 μL of the drug solution was added to each well of the 96-well plate inoculated with the cells, and three duplicate wells were set for each drug concentration. The 96-well plate, now containing the drug-treated cells, was cultured under conditions of 37° C., 5% CO2, and 95% humidity for an additional 72 hours before CTG analysis was performed.

[4] = 20 mg/kg, Day 0, mean ± standard error
[5] = 20 mg/kg, Day 4, mean ± standard error
[6] = 20 mg/kg, Day 7, mean ± standard error
[7] = 20 mg/kg, Day 11, mean ± standard error
[8] = 20 mg/kg, Day 13, mean ± standard error

**Q.** CCOc1cc2ncnc(Nc3ccc(Oc4ccn5ncnc5c4)c(C)c3)c2cc1NC(=O)/C(F)=C/[C@@H]1CCCN1C was tested. Which pIC50 (ErbB2 (D769H)) did it give?
**A.** The pIC50 was 9.00.

**Q.** And the pIC50 (ErbB2 (V777L))?
**A.** The pIC50 was 9.63.

**Q.** And the pIC50 (ErbB2 (D769Y))?
**A.** The pIC50 was 8.61.

**Q.** And the pIC50 (ErbB2 (R896C))?
**A.** Its pIC50 is 9.01.

**Q.** How did the pIC50 (ErbB2 (D769H)) turn out when CCOc1cc2ncnc(Nc3ccc(Oc4ccn5ncnc5c4)c(C)c3)c2cc1NC(=O)/C(F)=C/[C@H]1CCCN1C [Compound I] was run?
**A.** The pIC50 was 9.15.

**Q.** What about the pIC50 (ErbB2 (V777L)) of the same molecule?
**A.** Its pIC50 is 9.51.

**Q.** And the pIC50 (ErbB2 (D769Y))?
**A.** Its pIC50 is 8.85.

**Q.** What about the pIC50 (ErbB2 (R896C)) of the same molecule?
**A.** The pIC50 was 9.15.

**Q.** What about the “Inhibitory activity on cell proliferation (in words)” value ([1]; Ba/F3 ErbB2 A775_G776insYVMA mutant cell line) of the same molecule?
**A.** The value was “good inhibitory activity”.

**Q.** And the pIC50 [1]?
**A.** Its pIC50 is 8.30.

**Q.** And the Tumor volume ([2]; 10 mg/kg, Day 0, mean ± standard error)?
**A.** Its Tumor volume is 130.9 ± 4.72 mm^3.

**Q.** What about the Tumor volume ([2]; 10 mg/kg, Day 4, mean ± standard error) of the same molecule?
**A.** Its Tumor volume is 112.1 ± 4.71 mm^3.

**Q.** And the Tumor volume ([2]; 10 mg/kg, Day 7, mean ± standard error)?
**A.** The Tumor volume was 157.7 ± 6.95 mm^3.

**Q.** What about the Tumor volume ([2]; 10 mg/kg, Day 11, mean ± standard error) of the same molecule?
**A.** Its Tumor volume is 160.2 ± 6.3 mm^3.

**Q.** What about the Tumor volume ([2]; 10 mg/kg, Day 13, mean ± standard error) of the same molecule?
**A.** Its Tumor volume is 172.9 ± 11.16 mm^3.

**Q.** And the “TGI (%)” value ([2]; 10 mg/kg)?
**A.** The value was 95%.

**Q.** And the “Efficacy (in words)” value ([2]; 10 mg/kg)?
**A.** The value was “strong efficacy”.

**Q.** What about the Tumor volume [2, 4] of the same molecule?
**A.** Its Tumor volume is 130.2 ± 5.25 mm^3.

**Q.** What about the Tumor volume [2, 5] of the same molecule?
**A.** Its Tumor volume is 69.2 ± 2.69 mm^3.

**Q.** And the Tumor volume [2, 6]?
**A.** Its Tumor volume is 82.7 ± 4.74 mm^3.

**Q.** What about the Tumor volume [2, 7] of the same molecule?
**A.** The Tumor volume was 93.5 ± 5.75 mm^3.

**Q.** What about the Tumor volume [2, 8] of the same molecule?
**A.** The Tumor volume was 71.1 ± 4.51 mm^3.

**Q.** What about the “TGI (%)” value ([2]; 20 mg/kg) of the same molecule?
**A.** Its value is 107%.

**Q.** And the “Efficacy (in words)” value ([2]; 20 mg/kg)?
**A.** The value was “strong efficacy”.

**Q.** What about the Tumor volume ([2]; 40 mg/kg, Day 0, mean ± standard error) of the same molecule?
**A.** The Tumor volume was 130.1 ± 5 mm^3.

**Q.** What about the Tumor volume ([2]; 40 mg/kg, Day 4, mean ± standard error) of the same molecule?
**A.** The Tumor volume was 63.8 ± 4.44 mm^3.

**Q.** What about the Tumor volume ([2]; 40 mg/kg, Day 7, mean ± standard error) of the same molecule?
**A.** Its Tumor volume is 36.3 ± 11.12 mm^3.

**Q.** What about the Tumor volume ([2]; 40 mg/kg, Day 11, mean ± standard error) of the same molecule?
**A.** Its Tumor volume is 21.5 ± 9.26 mm^3.

**Q.** And the Tumor volume ([2]; 40 mg/kg, Day 13, mean ± standard error)?
**A.** Its Tumor volume is 20.6 ± 8.61 mm^3.

**Q.** And the “TGI (%)” value ([2]; 40 mg/kg)?
**A.** The value was 112%.

**Q.** What about the “Efficacy (in words)” value ([2]; 40 mg/kg) of the same molecule?
**A.** The value was “strong efficacy”.

**Q.** And the “Tumor inhibitory effect compared with the other test groups (in words)” value ([2]; 40 mg/kg, statistically different from other test groups (p-value less than 0.01))?
**A.** The value was “strongest tumor inhibitory effect”.

**Q.** What about the pIC50 [3] of the same molecule?
**A.** The pIC50 was 7.45.

**Q.** What about the “Inhibitory activity on cell proliferation (in words)” value ([3]; NCI-H1781 mutant cell line) of the same molecule?
**A.** Its value is “good inhibitory activity”.

**Q.** How did the pIC50 [1] turn out when CS(=O)(=O)CCNCc1ccc(-c2ccc3ncnc(Nc4ccc(OCc5cccc(F)c5)c(Cl)c4)c3c2)o1 [Lapatinib, reference compound] was run?
**A.** The pIC50 was 6.97.

**Q.** And the “Efficacy (in words)” value ([2]; 20 mg/kg)?
**A.** Its value is “moderate efficacy”.

**Q.** With CCOc1cc2ncc(C#N)c(Nc3ccc(OCc4ccccn4)c(Cl)c3)c2cc1NC(=O)/C=C/CN(C)C [Neratinib, reference compound] as the molecule, how does the Tumor volume [2, 4] read?
**A.** The Tumor volume was 130.9 ± 4.75 mm^3.

**Q.** And the Tumor volume [2, 5]?
**A.** The Tumor volume was 115.3 ± 9.81 mm^3.

**Q.** And the Tumor volume [2, 6]?
**A.** Its Tumor volume is 182 ± 10.87 mm^3.

**Q.** And the Tumor volume [2, 7]?
**A.** The Tumor volume was 325.6 ± 9.86 mm^3.

**Q.** And the Tumor volume [2, 8]?
**A.** The Tumor volume was 532.8 ± 15.26 mm^3.

**Q.** And the “TGI (%)” value ([2]; 20 mg/kg)?
**A.** Its value is 56%.

**Q.** With CCOc1cc2ncc(C#N)c(Nc3ccc(OCc4ccccn4)c(Cl)c3)c2cc1NC(=O)/C=C/[C@H]1CCCN1C [Pyrotinib, reference compound] as the molecule, how does the pIC50 (ErbB2 (D769H)) read?
**A.** The pIC50 was 7.81.

**Q.** What about the pIC50 (ErbB2 (V777L)) of the same molecule?
**A.** Its pIC50 is 7.98.

**Q.** And the pIC50 (ErbB2 (D769Y))?
**A.** Its pIC50 is 7.04.

**Q.** What about the pIC50 (ErbB2 (R896C)) of the same molecule?
**A.** The pIC50 was 8.28.

**Q.** And the Tumor volume [2, 4]?
**A.** The Tumor volume was 130.4 ± 5.4 mm^3.

**Q.** And the Tumor volume [2, 5]?
**A.** Its Tumor volume is 154.6 ± 4.87 mm^3.

**Q.** What about the Tumor volume [2, 6] of the same molecule?
**A.** The Tumor volume was 328.2 ± 13.39 mm^3.

**Q.** What about the Tumor volume [2, 7] of the same molecule?
**A.** Its Tumor volume is 405.4 ± 19.38 mm^3.

**Q.** What about the Tumor volume [2, 8] of the same molecule?
**A.** Its Tumor volume is 534.8 ± 38.29 mm^3.

**Q.** What about the “TGI (%)” value ([2]; 20 mg/kg) of the same molecule?
**A.** The value was 55%.

**Q.** What about the “Efficacy (in words)” value ([2]; 20 mg/kg) of the same molecule?
**A.** The value was “moderate efficacy”.

**Q.** And the pIC50 [3]?
**A.** Its pIC50 is 7.14.

**Q.** With Cc1cc(Nc2ncnc3ccc(NC4=NC(C)(C)CO4)cc23)ccc1Oc1ccn2ncnc2c1 [Tucatinib, reference compound] as the molecule, how does the pIC50 (ErbB2 (D769H)) read?
**A.** The pIC50 was 8.59.

**Q.** What about the pIC50 (ErbB2 (V777L)) of the same molecule?
**A.** Its pIC50 is 8.97.

**Q.** And the pIC50 (ErbB2 (D769Y))?
**A.** The pIC50 was 8.05.

**Q.** What about the pIC50 (ErbB2 (R896C)) of the same molecule?
**A.** Its pIC50 is 8.66.
